Experimental findings from US20100125053A1, “Allosteric Modulation of the Dopamine Transporter Protein for the Treatment of HIV-1 Induced Neurologic Dysfunction” (priority 2008, published 2010) are described below.

The assay has as its system striatal synaptosomes. The assay can be described thus: [3H]leucine uptake assay in rat striatal synaptosomes (electrochemical gradients). Type of assay: cell-based. The conditions noted are these: 15 min preincubation, [3H]leucine 10 min. As for the experimental part:
[^3H]Leucine Uptake Assay. […] The uptake assay was performed in duplicate with a final volume of 250 μl. […] TatΔ31-61 and leucine were chosen as negative and positive controls, respectively. Assay tubes were placed in an oxygenated metabolic shaker at 34° C. for 15 min. Subsequently, 1 μM [^3H]leucine (final concentration, 25 μl) was added to each tube and incubation was continued for 10 min at 34° C. in the metabolic shaker. […] Nonspecific uptake for [^3H]leucine and [^3H]DA was determined in the presence of 10 mM L-lysine and 10 μM nomifensine, respectively. Incubation was terminated by the addition of 3 ml of ice-cold assay buffer, followed by immediate filtration through Whatman GF/B glass fiber filters. Filters were washed 3 times with 3 ml ice-cold assay buffer using a Brandel cell harvester.

Regarding `CC(C)C[C@H](N)C(=O)O` [leucine], the inhibition at 1 µM (1 μM) is roughly 10%. Besides, the inhibition at 10 µM (10 μM, read-out: inhibition / decrease of [3H]leucine uptake) was roughly 40%.
